Source: PMC6114103, “17-DMAG inhibits the multiplication of several Babesia species and Theileria equi on in vitro cultures, and Babesia microti in mice” (International Journal for Parasitology: Drugs and Drug …, 2018)

Columns and labels:
T. equi (USDA strain) = experiment: in vitro multiplication inhibition assay (SYBR Green I fluorescence, 96 h), single drugs and two-drug combinations; type: cell-based, Theileria equi; conditions: for IC50: Theileria equi, T. equi, 96 h, triplicate, mean ± SD, read-out: IC50 on in vitro culture of parasites; for Selectivity index MDBK: ratio IC50 MDBK to IC50 T. equi; for Selectivity index NIH/3T3: ratio IC50 NIH/3T3 to IC50 T. equi
Protocol: Babesia parasite cultures were maintained using a microaerophilic stationary-phase culture system ([Levy and Ristic, 1980]; [Avarzed et al., 1997]; [Igarashi et al., 1998]). Briefly, bovine Babesia parasites were grown in bovine red blood cells (RBC) in the specific complete medium for each species. The medium for B. bovis (Texas strain) contained GIT medium supplemented with 10% bovine serum, while the medium for B. bigemina (Argentina strain) and B. divergens (Germany strain) was Medium 199 and RPMI 1640 medium, respectively, supplemented with 40% bovine serum ([Rizk et al., 2016]). B. caballi (USDA strain) was grown using equine RBC in GIT medium supplemented with 10% equine serum. T. equi (USDA strain) was grown in equine RBC in M199 medium supplemented with 40% equine serum and hypoxanthine (MP Biomedicals, USA) at a final concentration of 13.6 μg/ml. All of the media included 60 U/ml penicillin G, 60 μg/ml streptomycin, and 0.15 μg/ml amphotericin B (Sigma-Aldrich, USA). The cultures were incubated at 37 °C in a humidified chamber with an atmosphere of 5% CO2, 5% O2, and 90% N2.
The assays were conducted in accordance with the protocol described previously with modification ([Guswanto et al., 2014]). Briefly, the cultures of B. bovis, B. bigemina, B. divergens, B. caballi, and T. equi with a parasitemia of 8%, 3%, 10%, 4%, and 9%, respectively, were harvested and adjusted to 1% parasitemia with fresh RBC before the inhibition assay. The 60 inner wells of a 96-well plate were used in the assay, while the peripheral wells were filled with sterile distillate water to reduce evaporation during incubation. To each well in triplicate, 2.5 μl of infected RBC (5 μl for B. divergens, B. caballi, and T. equi) was added and mixed with a culture medium containing the drug to a total volume of 100 μl. The stock solution of 17-DMAG, DA, and AV was dissolved in a culture medium at various concentrations using two-fold dilution. A culture medium containing DMSO at a final concentration of 0.2% was added to the well with infected RBC as a positive control and to the well with uninfected RBC as a negative control. Furthermore, a drug combination assay was conducted in parallel with the single drug assay at the constant ratio in accordance with the Chou–Talalay method ([Chou, 2006]). In the same plate with a single drug inhibition assay, a two-drug combination (DA+17-DMAG, DA + AV, and 17-DMAG + AV) at concentrations of 0.25 x IC50, 0.5 x IC50, IC50, 2 x IC50, and 4 x IC50 was added to the well containing infected RBC in triplicate. The plate was incubated in a humidified incubator with 5% CO2, 5% O2, and 90% N2. After 96 h, 100 μl of a lysis buffer containing SYBR Green I was added to each well. The plate was wrapped with aluminum foil to avoid direct light exposure and incubated at room temperature. After incubation for 6 h, fluorescence values were measured using a fluorescence spectrophotometer (Fluoroskan Ascent, Thermo Fisher Scientific, USA) with the excitation and emission wavelength at 485 nm and 518 nm, respectively. The fluorescence data were subtracted from the negative control and used to calculate the IC50.
The IC50 of 17-DMAG, DA, and AV was calculated from the percentage of inhibition on the in vitro multiplication of all tested species using non-linear regression (curve fit), available in GraphPad Prism (GraphPad Software Inc., USA). Combination index (CI) values for the drug combination were calculated using CompuSyn software ([Chou, 2006]). Since the chemotherapy effect is preferable at the highest inhibition, the degree of synergism was determined as the weighted average of CI values using a formula ((1 x IC50) + (2 x IC75) + (3 x IC90) + (4 x IC95))/10 ([Chou, 2006]). The differences among groups regarding the parasitemia, hematology profiles, and body weight in the B. microti–infected mouse model were analyzed using Student's t-test, available in GraphPad Prism software.

[1] = test system: B. microti (Munich strain); experiment: inhibition assay using a B. microti-infected mouse model; type: in vivo, BALB/c mice; conditions: 5 consecutive days; for day p.i. on which parasite no longer detected in blood smears via microscopy (parasite clearance): 17-DMAG + DA 15 + 15, 17-DMAG + AV 15 + 10, DA + AV 15 + 10 mg/kg BW
Protocol: B. microti (Munich strain) was recovered from -80 °C stock in two 6-week female Balb/c mice (Clea, Japan). The parasitemia was monitored every 2 days. […] The inhibitory effect of 17-DMAG was also determined using a B. microti mouse model according to the previous protocol ([Goo et al., 2010]). Briefly, 35 female BALB/c mice aged 8 weeks received an intraperitoneal injection of 1 × 10^7 of B. microti-infected RBC and were divided into seven groups. Another group consisting of five mice was kept uninfected and untreated as a control. The multiplication of B. microti was observed from blood smears after staining with Giemsa using a light microscope. The drug treatment was initiated to all infected mice on day five, after the parasitemia reached approximately 1%, and continue to the total of five consecutive days. Group 1 was treated with 4% DMSO in saline water as a control intraperitoneally. […] The parasitemia was estimated from Giemsa-stained blood smears using microscopy in approximately 5000 RBC. Furthermore, the hematology profiles including RBC, hemoglobin, and hematocrit were measured from 10 μl of mouse blood using an automatic hematology analyzer (Celltac α MEK-6450, Nihon Kohden, Tokyo, Japan). The rate of parasitemia, hematology profiles, and mouse body weight was monitored for 60 days. The experiment was repeated once so each group contained 10 mice. […] Combination index (CI) values for the drug combination were calculated using CompuSyn software ([Chou, 2006]). […] The differences among groups regarding the parasitemia, hematology profiles, and body weight in the B. microti-infected mouse model were analyzed using Student's t-test, available in GraphPad Prism software. The difference was considered significant if P < 0.05.

[2] = 17-DMAG 30, DA 25, AV 20 mg/kg BW

Structure (SMILES): CO[C@H]1/C=C\C=C(/C)C(=O)NC2=CC(=O)C(NCCN(C)C)=C(C[C@@H](C)C[C@H](OC)[C@H](O)[C@@H](C)/C=C(\C)[C@@H]1OC(N)=O)C2=O [17-DMAG, 17-dimethylaminoethylamino-17-demethoxygeldanamycin]
- IC50 (T. equi (USDA strain)): 308 ± 7.2 nM
- Selectivity index MDBK (T. equi (USDA strain)): 29
- Selectivity index NIH/3T3 (T. equi (USDA strain)): 50
- peak parasitemia ([1]; 17-DMAG 30 mg/kg BW intraperitoneal, peak on day 10 p.i., 10 mice): 4.7 ± 2.0%
- day p.i. on which parasite no longer detected in blood smears via microscopy (parasite clearance) [1, 2]: 36 day p.i.
- inhibition of the multiplication of B. microti in mice ([1]; 17-DMAG 30, DA 25, AV 20 mg/kg BW, combinations 17-DMAG 15 with DA 15 or AV 10 mg/kg BW): effectively inhibited

Structure (SMILES): O=C1C(O)=C([C@H]2CC[C@H](c3ccc(Cl)cc3)CC2)C(=O)c2ccccc21 [AV, atovaquone]
- IC50 (T. equi (USDA strain)): 95 ± 65 nM
- Selectivity index MDBK (T. equi (USDA strain)): >421
- Selectivity index NIH/3T3 (T. equi (USDA strain)): >421
- day p.i. on which parasite no longer detected in blood smears via microscopy (parasite clearance) [1, 2]: ≤ 28 day p.i.
